This is an account of results in patent US12053549B2, “Laxative tablet” (SETOLAS Holdings, Inc., priority 2018, dated 2024).

The data set can be described thus: Volume-based 50% particle diameter (D50) of raw materials by laser diffractometry. The class given is physicochemical. The settings on record: raw material. The protocol:
0.7 g of magnesium oxide was placed in a beaker with 70 mL of 0.2% sodium hexametaphosphate solution, and the mixture was subjected to dispersion treatment (3 minutes) using an ultrasonic homogenizer (Nippon Seiki, US-300). The volume-based 50% particle size (D50) of the magnesium oxide was then measured using a laser diffraction scattering particle size analyzer (Nikkiso, Microtrac).

On to `[O]=[Mg]` [Magnesium oxide], for which the “volume-based 50% particle size (D50)” value is 6.5 μm.
